In patent US20180346731A1, “Formation of Stable Pyranoanthocyanins, and Uses Thereof as Sources of Natural Color” (Ohio State Innovation Foundation, priority 2017, published 2018):
“And” between values parts separate entries of the source, which are not always exact repeats. Equal entries are not always repeated.

How the values were obtained:
[1] = Colorimetry (CIEL*c*h*, ΔE) of pigment solutions with ascorbic acid; assay type: physicochemical
Experimental: (§1) The semi-purified chokeberry extract, the isolated cyanidin-3-galactoside, and the purified 5-carboxypyranocyanidin-3-galactoside were diluted in pH 3.0 citrate buffer (0.1 M adjusted with HCl) until an absorbance of 1.0 at their respective λmax was reached. Levels of AA of 250, 500, and 1000 mg/L were added using a concentrated ascorbic acid stock solution, and a control consisting of each pigment with the absence of AA was maintained. The control consisted of the pigment in the buffer in the absence of AA. An additional test was performed with the same model juice using hydrogen peroxide, a known degradation product of AA. To determine if AA bleaching was due to formation of H2O2, direct addition of it was investigated. In place of added AA, a 62.2 μL of a 0.3% peroxide solution was added to match the molar equivalency of the 500 mg/L AA level, which was 2.84 mM.
(§2) All samples were brought to the same final volume with additional citrate buffer. […] Samples were stored in the dark at 25° C. in an incubator. UV-Vis spectrophotometry, colorimetry, and HPLC analyses were conducted over a 5 day period following the addition of ascorbic acid or hydrogen peroxide. UV-Vis spectral data was collected every hour for the first 8 hours, and then at 12 hr, and daily from that point on for 5 days. […] HPLC analyses were conducted on days 0, 1, 3, and 5. All treatments were run in triplicate.
Using UV-Vis spectral data (5 nm steps, 380-700 nm) in combination with software written for color conversion, absorbance data was translated to CIE-L*c*h*. The calculations for CIE-L*c*h* implemented by the software used CIE relative spectral power distribution for a D65 standard illuminants and 10° observer angle function. Color data is reported as L* (lightness), c* (chroma), and h* (hue angle).
Total color changes (ΔE) were calculated as the color change from day 0 to 5 for each respective treatment, and presented in Table 4.
Numbers are means of 3 replications, followed by (standard deviations). ΔE: total color change from day 0 (control) to day 5.

[2] = UV-Vis absorbance loss and first-order bleaching kinetics of pigment solutions with ascorbic acid (pH 3.0 citrate buffer, 25° C., dark); assay type: physicochemical; conditions: for K (reaction rate, first-order) / t1/2: 25° C. dark
Experimental: The semi-purified chokeberry extract, the isolated cyanidin-3-galactoside, and the purified 5-carboxypyranocyanidin-3-galactoside were diluted in pH 3.0 citrate buffer (0.1 M adjusted with HCl) until an absorbance of 1.0 at their respective λmax was reached. Levels of AA of 250, 500, and 1000 mg/L were added using a concentrated ascorbic acid stock solution, and a control consisting of each pigment with the absence of AA was maintained. The control consisted of the pigment in the buffer in the absence of AA. An additional test was performed with the same model juice using hydrogen peroxide, a known degradation product of AA. To determine if AA bleaching was due to formation of H2O2, direct addition of it was investigated. In place of added AA, a 62.2 μL of a 0.3% peroxide solution was added to match the molar equivalency of the 500 mg/L AA level, which was 2.84 mM. All samples were brought to the same final volume with additional citrate buffer. […] Samples were stored in the dark at 25° C. in an incubator. UV-Vis spectrophotometry, colorimetry, and HPLC analyses were conducted over a 5 day period following the addition of ascorbic acid or hydrogen peroxide. UV-Vis spectral data was collected every hour for the first 8 hours, and then at 12 hr, and daily from that point on for 5 days. […] HPLC analyses were conducted on days 0, 1, 3, and 5. All treatments were run in triplicate. A SpectraMax 190 Microplate Reader (Molecular Devices, Sunnyvale, Calif., U.S.) with a 96-well plate (poly-D-lysine coated polystyrene) were used for the evaluation of absorbance from 380-700 nm, 1 nm intervals. Aliquots (200 uL) of samples were loaded into individual wells, and a blank consisted of the same citrate buffer used. Because of the rapid nature of AA-induced color loss, degradation kinetics were evaluated in terms of change in maximum absorbance at the original λmax over time. Bleaching is a first-order reaction, typical of ACN degradation, and was modeled as such in determining the reaction rate and half-life. The decrease in maximum absorbance correlated with an increase in lightness (L*) as well as the decrease in chroma (c*). The reduction in maximum absorbance did closely follow first-order kinetics for chokeberry extract and cyanidin-3-galactoside but slightly deviated for 5-carboxypyranocyanidin-3-galactoside. […] The kinetics results for each pigment and AA level can be found in Table 3 below.

[3] = Direct hydrogen peroxide addition to pigment solutions (HPLC, absorbance); assay type: physicochemical
Experimental: as §1
All samples were brought to the same final volume with additional citrate buffer. […] Samples were stored in the dark at 25° C. in an incubator. UV-Vis spectrophotometry, colorimetry, and HPLC analyses were conducted over a 5 day period following the addition of ascorbic acid or hydrogen peroxide. […]
Auto-oxidation of AA in solution can give rise to H2O2 formation, a powerful bleaching agent that can further lead to rapid ACN degradation. […] HPLC profiles as well as maximum absorbance and λmax of the solutions were evaluated.

[4] = HPLC monitoring of pigment peaks with ascorbic acid; assay type: physicochemical
Experimental: Prior to experimentation, pigments were evaluated for purity by using an analytical HPLC only different from the previously listed one by the use of different pumps (LC-20AD, Shimadzu, Md., US). Purified pigments were filtered using the Phenex RC 0.45 μm membranes. A binary system with 1 mL/min flow rate was used: solvent A: 4.5% formic acid in HPLC grade water and solvent B: HPLC grade acetonitrile. The gradient began with an isocratic flow of 6% solvent B for 17 minutes (elution of primary anthocyanins), increasing to 15% solvent B by 45 minutes (elution of primary pyranoanthocyanins), and to 40% solvent B by 50 minutes. A 10 μL injection volume was loaded onto a Phenomenex Kinetix 5 μm EVO C18 100 A. 150×4.6 mm column and Phenomenex Ultra UHPLC EVO C18 guard cartridge attached.
as §1, §2
Prepared solutions were monitored to determine the formation of potential degradation products or profile changes. Using the analytical HPLC system and conditions described, chromatograms were monitored with the max plot (260-700 nm), 490 nm (near λmax of 5-carboxypyranocyanidin-3-galactoside), and 520 nm (near ma of cyanidin-3-galactoside). A max plot of 470-520 nm was later added to standardize changes in the AUC for all three pigments and their degradation products.

[5] = reported in literature; cited from earlier work

## O=C(O)C1=Cc2c(O[C@@H]3O[C@H](CO)[C@H](O)[C@H](O)[C@H]3O)c(-c3ccc(O)c(O)c3)[o+]c3cc(O)cc(c23)O1 [5-carboxypyranocyanidin-3-galactoside]
[1]; 250 mg/L AA
  Chroma Day 0: 55.2 (0.4)
  Chroma Day 5: 43.2 (0.2)
  Hue Angle Day 0: 50.7 (0.2) °
  Hue Angle Day 5: 46.9 (.3) °
  Lightness Day 0: 81.9 (0.1)
  Lightness Day 5: 82.8 (0.3)
  ΔE Over 5 days: 4.5 (0.2)
[1]; 500 mg/L AA
  Chroma Day 0: 54.7 (0.3)
  Chroma Day 5: 39.2 (0.3)
  Hue Angle Day 0: 50.4 (0.1) °
  Hue Angle Day 5: 48.3 (0.4) °
  Lightness Day 0: 82.1(0.3)
  Lightness Day 5: 83.6 (0.4)
  ΔE Over 5 days: 5.0 (0.2)
[1]; 1000 mg/L AA
  Chroma Day 5: 36.2 (0.3)
  Hue Angle Day 0: 51.0 ° and 51.0 (0.1) °
  Hue Angle Day 5: 57.1 ° and 57.1 (0.7) °
  Lightness Day 5: 83.7 (0.2)
  ΔE Over 5 days: 5.2 (0.5)
[1]; 1000 mg/L AA, 48 hours
  L* after 48 hours: 86.6
[1]; 1000 mg/L AA, listed as 5-Carboxypyranocyanidin-3-galactoside
  ΔE Over 5 days: 5.2
[1]; Control, no AA
  Chroma Day 0: 54.3 (0.7)
  Chroma Day 5: 49.9 (1.3)
  Hue Angle Day 0: 50.0 (0.2) °
  Hue Angle Day 5: 47.5 (0.6) °
  Lightness Day 5: 82.2 (0.6)
  ΔE Over 5 days: 2.1 (0.4)
[1]; Control, no AA, mean (SD), n=3
  Lightness Day 0: 82.2 (0.2)
[1]; all levels of AA
  time until significant change in chroma as compared to the control: 48 h
[1]; day 0
  initial hue angle: 50 °
[2]; 250 mg/L AA
  K (reaction rate, first-order): 2.69E−03
  t1/2: 258 h
[2]; 500 mg/L AA, 5 day period
  reduction in maximum absorbance: 38%
[2]; 500 mg/L AA, after treatment
  λmax after hypsochromic change: 484 nm
[2]; 500 mg/L AA, start
  λmax before hypsochromic change: 491 nm
[2]; 500 mg/L AA
  K (reaction rate, first-order): 4.61E−03
  t1/2: 150 h
[2]; 1000 mg/L AA
  K (reaction rate, first-order): 1.08E−02
  t1/2: 64 h
[2]; Control, no AA, absorbance at λvis-max
  K (reaction rate, first-order): 7.08E−04
[2]; all levels of AA added
  time before a significant difference (p<0.05) in maximum absorbance from time 0: 24 h
[2]; over the 5 days of AA treatment, regardless of AA level
  hypsochromic shift of λmax: ≤ 10 nm
[3]
  resistance to bleaching with H2O2: more resistant to bleaching compared to anthocyanins
[4]; 1000 mg/L AA, HPLC
  target peaks left after 1 day: 10%
[4]; 1 g/L AA, HPLC AUC
  reduction of pigment peak by day 1: 93%
  reduction of pigment peak by day 5: 99%

## OC[C@H]1O[C@@H](Oc2cc3c(O[C@@H]4O[C@H](CO)[C@@H](O)[C@H](O)[C@H]4O)cc(O)cc3[o+]c2-c2ccc(O)c(O)c2)[C@H](O)[C@@H](O)[C@@H]1O [Cy-3-glu-5-glu]
[5]
  pKh: 2.23
